Reference: PubChem BioAssay (NCI)
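Method: 48-hour compound exposure of cells in 96-well plates, five concentrations, linear interpolation of endpoints. Here, GI50 denotes the concentration required for 50% inhibition of growth. TGI marks complete inhibition of growth.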

Key:
Test in all cases: growth of human tumour cells (NCI), 48 h
HT29 colon = system: HT29 colon
HOP-92 NSCLC = system: HOP-92 NSCLC
OVCAR-3 ovarian = system: OVCAR-3 ovarian
HCC-2998 colon = system: HCC-2998 colon
OVCAR-8 ovarian = system: OVCAR-8 ovarian
UO-31 renal = system: UO-31 renal
SW-620 colon = system: SW-620 colon
MCF7 breast = system: MCF7 breast
PC-3 prostate = system: PC-3 prostate
BT-549 breast = system: BT-549 breast

Compound	TGI (HT29 colon)	TGI (HOP-92 NSCLC)	TGI (OVCAR-3 ovarian)	TGI (HCC-2998 colon)	TGI (OVCAR-8 ovarian)	TGI (UO-31 renal)	TGI (SW-620 colon)	TGI (MCF7 breast)	TGI (PC-3 prostate)	GI50 (HT29 colon)	GI50 (OVCAR-3 ovarian)	GI50 (MCF7 breast)	GI50 (HCC-2998 colon)	GI50 (OVCAR-8 ovarian)	GI50 (PC-3 prostate)	GI50 (UO-31 renal)	GI50 (SW-620 colon)	GI50 (HOP-92 NSCLC)	GI50 (BT-549 breast)	TGI (BT-549 breast)
Cc1ccccc1NC(=O)c1cc(-c2ccc([N+](=O)[O-])cc2)nc(=S)[nH]1	> 100 µM	> 100 µM	> 100 µM	> 100 µM	> 100 µM	> 100 µM	> 100 µM													
O=C(O)c1ccc(CI)cc1	37.9 µM	31 µM	23.3 µM	35.6 µM	37.3 µM	32.7 µM	33.7 µM	31.1 µM	30.3 µM											
O=S(=O)(NC1=NCCN1C(=S)SN1CCn2c1nsc2=S)c1cccc2ccccc12	> 100 µM		40.3 µM	53.2 µM	43.8 µM	> 100 µM	> 100 µM	58 µM	> 100 µM	31.4 µM	16.5 µM	7.27 µM	21.4 µM	17.5 µM	29.2 µM	26.6 µM	33.2 µM			
CCCCCCCCOC(=O)CC[C@@H](C)[C@H]1CC[C@H]2[C@@H]3[C@H](OC(=O)CCN)C[C@@H]4C[C@H](OC(=O)CCN)CC[C@]4(C)[C@H]3C[C@H](OC(=O)CCN)[C@]12C	5.79 µM	6.74 µM	35.4 µM	39 µM	4.62 µM	42 µM	3.93 µM		22.4 µM	2.44 µM	14.6 µM		13.8 µM	2.14 µM	7.17 µM	21.9 µM	1.95 µM	2.29 µM	20.4 µM	46.9 µM
CCC[CH2][Sn]([Cl])([Cl])[CH2]CCC	2.81 µM	2.64 µM	2.32 µM	2.32 µM	7.02 µM	2.69 µM	1.24 µM			1.44 µM	1.03 µM		1.1 µM	1.88 µM		1.39 µM	0.333 µM	1.15 µM		
O=S(=O)(NCCNc1nccc(-c2c(-c3ccc(F)c(O)c3)nc3sccn23)n1)c1ccc(F)cc1	31.1 µM	6.86 µM	59.5 µM	17.2 µM	48 µM	15.1 µM	30.4 µM	12.2 µM		4.19 µM	4.09 µM	2.17 µM	4.45 µM	4.25 µM		4.02 µM	5.22 µM	1.3 µM	2.99 µM	23.4 µM
Cc1nc(N)nc2c1CCC(O)S2 (configuration not stated)	17.3 µM	12.3 µM	7.7 µM	22.2 µM	24 µM	> 100 µM	14.1 µM	10.4 µM	44.7 µM	4.24 µM	2.76 µM	3.02 µM	9.46 µM	3.73 µM	3.52 µM	39.7 µM	3.64 µM	2.54 µM		
CC1=Nc2c(ccc3c2C(=O)c2ccccc2C3=O)NC(c2cccc3c2CCC3)C1 (configuration not stated)	> 100 µM	> 100 µM	> 100 µM	> 100 µM	> 100 µM	> 100 µM	> 100 µM													
CC1=C[C@H]2c3c([nH]c4ccccc34)C(c3c[nH]c4ccccc34)[C@H]2CC1 (some centres not stated)	11.5 µM	5.34 µM		12.4 µM	28 µM		24.1 µM													
O=C(Cc1nc2ccccc2c(=O)n1-c1ccccc1Cl)c1ccncc1	> 100 µM	> 100 µM	> 100 µM	> 100 µM	> 100 µM	> 100 µM	> 100 µM													
C=CCn1c(C)nc2ccc(Nc3nc(Nc4ccc(F)cc4)nc4ccccc34)cc21	13.3 µM	6.97 µM	17.8 µM	23.5 µM	13.6 µM	19.3 µM	10.7 µM		14.7 µM	3 µM	5.04 µM		8.87 µM	3.05 µM	3.14 µM	4.53 µM	2.8 µM	0.585 µM	3.35 µM	18.1 µM
COC12CCC(=O)C=C1c1ccccc1N2C(C)=O (configuration not stated)	> 100 µM		> 100 µM	> 100 µM	> 100 µM	> 100 µM	> 100 µM													
Cc1nn[n-]n1.N.N.N.N.N.[Cl-].[Co+3]	> 100 µM	> 100 µM	> 100 µM	> 100 µM	> 100 µM	> 100 µM	> 100 µM			> 100 µM	> 100 µM		> 100 µM	> 100 µM		> 100 µM	> 100 µM	> 100 µM		
CC1=C(C(=O)CC(=O)C(=O)Nc2cc(C)ccc2C)Sc2ccccc2N1	> 100 µM	> 100 µM	> 100 µM	> 100 µM	> 100 µM	> 100 µM	> 100 µM													
CN(C)CCNc1ccc(CO)c2sc3ccc(O)cc3c(=O)c12	9.35 µM	7.35 µM	23.5 µM	7.4 µM	8.89 µM	6.68 µM	10.5 µM		5.92 µM											8.93 µM
CCCNC(=O)C1C(=O)C(=O)N(CCC)C1=O (configuration not stated)	> 100 µM	> 100 µM	> 100 µM	> 100 µM	> 100 µM	> 100 µM	> 100 µM													
CC1/C=C/[C@@]2(C)CCC(C(C)(C)O)C2C(O)C[C@](C)(O)/C=C/C1 (some centres not stated)	> 100 µM	> 100 µM	> 100 µM	> 100 µM	> 100 µM	> 100 µM	> 100 µM													
CC(=O)N/N=C1\CC(C)(C)C2CCC1C2 (configuration not stated)		> 100 µM	> 100 µM		> 100 µM	> 100 µM	> 100 µM													
O=C1/C(=C/c2cccc(Br)c2)COc2ccc(O)cc21	10.2 µM	13.6 µM	3.89 µM	3.46 µM	12.9 µM	3.46 µM	2.49 µM		5.57 µM	2.43 µM	1.82 µM		1.8 µM	3.4 µM	2.04 µM	1.51 µM	0.683 µM	2.65 µM	3.01 µM	12.7 µM
CCC(=O)c1c(NOC2OCC(OC(C)=O)C(OC(C)=O)C2OC(C)=O)nc(OC)n(C)c1=O (configuration not stated)	> 100 µM	> 100 µM	> 100 µM	> 100 µM	> 100 µM	> 100 µM	> 100 µM													
O=C1c2ccccc2-[n+]2ccc3c([nH]c4ccccc43)c21	1.78 µM		0.432 µM	0.484 µM	> 100 µM	3.28 µM	2.72 µM	0.834 µM	1.08 µM											4.92 µM

Compound	TGI (HT29 colon)	TGI (HOP-92 NSCLC)	TGI (OVCAR-3 ovarian)	TGI (HCC-2998 colon)	TGI (OVCAR-8 ovarian)	TGI (UO-31 renal)	TGI (SW-620 colon)	TGI (MCF7 breast)	TGI (PC-3 prostate)	GI50 (HT29 colon)	GI50 (OVCAR-3 ovarian)	GI50 (MCF7 breast)	GI50 (HCC-2998 colon)	GI50 (OVCAR-8 ovarian)	GI50 (PC-3 prostate)	GI50 (UO-31 renal)	GI50 (SW-620 colon)	GI50 (HOP-92 NSCLC)	GI50 (BT-549 breast)	TGI (BT-549 breast)
O=c1c2cc(F)ccc2sc2c(N3CCNCC3)nc3ccc(F)cc3c12	3.22 µM	2.52 µM	3.17 µM	3.4 µM		2.6 µM	3.12 µM		3.3 µM	1.65 µM	1.73 µM		1.74 µM		1.7 µM	1.31 µM	1.61 µM	1.18 µM	10.1 µM	24.1 µM
N#Cc1ccccc1C(Cl)(Cl)c1cnccn1	> 100 µM	65.4 µM		> 100 µM	77 µM	> 100 µM	> 100 µM													
C=CCNc1nc2c(s1)C(=O)c1ccccc1C2=O	50.2 µM	21.8 µM	37.6 µM	35.3 µM	20.1 µM	26.1 µM	32.4 µM	24.4 µM	30.3 µM											
COC/C=C\COC	> 100 µM	> 100 µM	> 100 µM	> 100 µM	> 100 µM	> 100 µM	> 100 µM													
COc1cc2c(c(OC)c1OC)-c1ncc3c(OC)c(OC)c(OC)cc3c1C2		> 100 µM	50.9 µM	30.7 µM	58.2 µM	47.2 µM	> 100 µM		> 100 µM		21.5 µM		16.1 µM	18.9 µM	33.7 µM	18 µM	37 µM	52.1 µM	25.4 µM	55.2 µM
CC[n+]1oc(C(=O)c2ccc(Cl)cc2)c(-c2ccccc2)c1-c1ccccc1.[Cl][Fe]([Cl])([Cl])[Cl]	> 100 µM	62.9 µM	56.2 µM	> 100 µM	> 100 µM	21.5 µM	> 100 µM	65.5 µM	> 100 µM	41.8 µM	23.1 µM	17.4 µM	60.8 µM	45.5 µM	31.4 µM	2.23 µM	> 100 µM	27.1 µM		
C=C1C(=O)OC2C/C(C)=C/CC/C(C)=C/CCC3(COC(C)=O)OC3CC12 (configuration not stated)	24.1 µM		19.2 µM	21.5 µM	19.8 µM	25.5 µM	5.09 µM													
Cc1ccc(NC(=O)CCc2nc(N)nc(N)c2-c2ccccc2)cc1C	> 100 µM	> 100 µM	> 100 µM	> 100 µM	> 100 µM	> 100 µM	> 100 µM													
COc1ccc(N=NC(C(=O)c2ccccc2)C(=O)c2ccccc2)cc1	74 µM		> 100 µM	91.1 µM	> 100 µM	51.7 µM	> 100 µM													
NS(=O)(=O)c1ccc(-n2nc3c(c2-c2ccc(Cl)cc2)Cc2ccccc2-3)cc1	98.1 µM	24.5 µM	31.6 µM	35.7 µM	44 µM	21.8 µM	4.48 µM	54.8 µM	27.9 µM	15.4 µM	17 µM	22.9 µM	18.3 µM	21.6 µM	14 µM	9.57 µM	1.88 µM	11.6 µM		
C#Cc1cccc(N2C(=O)c3c(c(-c4ccccc4)c(-c4ccc(Cc5ccc(-c6c(-c7ccccc7)c7c(c(-c8ccccc8)c6-c6ccccc6)C(=O)N(c6cccc(C#C)c6)C7=O)cc5)cc4)c(-c4ccccc4)c3-c3ccccc3)C2=O)c1	> 100 µM	29 µM	> 100 µM	> 100 µM	> 100 µM	> 100 µM	> 100 µM													
O=c1/c(=C/c2ccccc2[N+](=O)[O-])sc2nc3ccccc3n12	> 46.4 µM	> 46.4 µM	> 31.6 µM	> 46.4 µM	> 46.4 µM	> 46.4 µM	55.6 µM													
COc1cccc(/C(C#N)=C/c2nc3c(N4CCOCC4)nc(Cl)nc3n2C)c1	1.36 µM	2.21 µM	1.92 µM	3.24 µM	3.07 µM	1.92 µM	1.7 µM		2.98 µM	0.351 µM	0.611 µM		1.69 µM	1.01 µM	1.06 µM	0.48 µM	0.429 µM	0.453 µM	0.631 µM	2.04 µM
COc1ccc(NC(=O)CC2SC(=Nc3ccccc3C)NC2=O)c([N+](=O)[O-])c1 (configuration not stated)	> 100 µM	> 100 µM	> 100 µM	> 100 µM	> 100 µM	> 100 µM	> 100 µM													
COc1ccc(OC)c(NC(=O)CCC/C(CC(=O)c2ccc(O)c(OC)c2)=N\Nc2nnc(C)n2N)c1	> 100 µM	> 100 µM	> 100 µM	> 100 µM	> 100 µM	> 100 µM	> 100 µM													
C/C=C(/I)CBr		29.2 µM		29.4 µM	45.4 µM	34 µM	36.6 µM													
COc1ccc(NC(=O)/C(=C/c2ccccc2)C(C)=O)cc1	28.5 µM	29.6 µM	29.9 µM	33.5 µM	51.5 µM	29 µM	35.1 µM													
CCNC(=O)COc1ccc(Br)cc1Br	> 100 µM	> 100 µM	> 100 µM	> 100 µM		> 100 µM	> 100 µM													
O=C(/C=C/c1ccccc1)C(Br)C(Br)c1ccccc1 (configuration not stated)	2.48 µM		2.45 µM	3.63 µM	6.38 µM	2.48 µM	1.59 µM		8.69 µM	1.04 µM	1.17 µM		1.9 µM	2.04 µM	2.69 µM	1.19 µM	0.402 µM		1.86 µM	3.39 µM
CC(Oc1ccc2c(-c3ccccc3)cc(=O)oc2c1)C(=O)O (configuration not stated)	> 100 µM	> 100 µM	> 100 µM	> 100 µM	> 100 µM	> 100 µM	> 100 µM													
